Source: US11478558B2, “Prostate-specific membrane antigen targeted high-affinity agents for endoradiotherapy of prostate cancer” (The Johns Hopkins University, priority 2017, dated 2022)

Experiments:
PSMA(+) PC3 PIP cells = assay: Cell uptake, cell surface binding and internalization in PSMA(+) PC3 PIP cells; type: cell-based, human; conditions: for Blockade PC3 PIP: ZJ43 10 μM; for total uptake within the PSMA(+) PC3 PIP cells: 1 h to 24 h
PSMA = PSMA (Homo sapiens (Human), UniProt Q04609); assay: PSMA binding affinity; conditions: for Ki: Table 6, given as range
PSMA, sequence (Q04609 whole entry): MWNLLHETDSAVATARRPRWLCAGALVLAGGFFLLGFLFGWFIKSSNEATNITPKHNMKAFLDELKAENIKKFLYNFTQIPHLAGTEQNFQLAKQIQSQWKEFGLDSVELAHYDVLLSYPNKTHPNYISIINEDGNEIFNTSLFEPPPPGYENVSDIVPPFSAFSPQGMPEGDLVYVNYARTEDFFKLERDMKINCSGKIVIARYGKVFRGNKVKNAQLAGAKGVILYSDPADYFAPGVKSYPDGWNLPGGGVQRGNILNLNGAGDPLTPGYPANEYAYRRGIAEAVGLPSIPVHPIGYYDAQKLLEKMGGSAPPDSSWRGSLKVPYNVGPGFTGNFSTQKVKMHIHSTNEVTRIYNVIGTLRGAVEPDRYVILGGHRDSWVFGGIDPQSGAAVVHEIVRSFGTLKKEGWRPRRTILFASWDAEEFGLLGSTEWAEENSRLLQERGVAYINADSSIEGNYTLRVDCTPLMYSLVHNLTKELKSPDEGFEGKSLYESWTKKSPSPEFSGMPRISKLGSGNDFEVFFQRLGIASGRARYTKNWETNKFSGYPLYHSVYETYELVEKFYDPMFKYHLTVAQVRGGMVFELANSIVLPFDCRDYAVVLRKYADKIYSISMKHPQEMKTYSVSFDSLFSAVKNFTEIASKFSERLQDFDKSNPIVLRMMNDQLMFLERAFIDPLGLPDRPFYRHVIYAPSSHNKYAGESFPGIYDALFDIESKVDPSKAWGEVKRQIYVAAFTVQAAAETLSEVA

PSMA(−) PC3 flu cells = assay: Cell uptake in PSMA(−) PC3 flu cells; type: cell-based, human
PSMA+ PC3 PIP tumors = assay: Radiopharmaceutical therapy in PC3 PIP flank tumor growth delay model; type: in vivo, NOD/SCID mice; conditions: for Median survival After 8 weeks post-treatment / Tumors above stated relative tumor growth after week 8 post-treatment (Vt/V0) / Mouse death (number of mice): 111 MBq; for Mouse death (number of mice): up to week 8 post-treatment; for Average final body weight: single i.v. dose 111 MBq (3 mCi)
Method: (§1) A pilot treatment study using NOD/SCID mice (n=10 per group) bearing PSMA+ PC3 PIP tumors with a single intravenous dose of 111 MBq (3 mCi) of agents ^177Lu-PSMA-617, ^177Lu-1, ^177Lu-3 and ^177Lu-5 and the control group (with saline treatment) were performed (Table 8). Volume of the all control group mice reached >5-fold of their initial tumor volume within 14 days. Mouse euthanized for treated group within 4 weeks of post-injection was mainly due to sudden body weight loss and not related to tumor growth. […] The difference among treatment groups was statistically significant (P=0.002) by the log-rank test compared to the untreated group. […] After 8-weeks, three mice from each treated group were used for detailed blood analysis and necropsy study. All animals underwent radiotherapy study had normal creatinine (0.3-0.4 mg/dL) and blood urea nitrogen levels. […] Additionally, a significant lowering of platelet for all three treated mice from ^177Lu-PSMA-617 compared control group and other treated groups.
Median survival for the ^177Lu-PSMA-617 was 133 days vs. 234 days for ^177Lu-1.
The remaining treated mice survived tumor-free for 10 months and were evaluated for toxicity.
(§2) Antitumor efficacy studies were performed in PC3 PIP flank tumor growth delay model to evaluate the therapeutic efficacy of a single dose intravenous injection of ^177Lu-L1, ^177Lu-L3, ^177Lu-L5 and ^177Lu-PSMA-617 vs. saline. This was a head-to-head comparison study and same batch of tumor-bearing mice and radioactivity. The study was commenced 14-18 days post-inoculation of the xenografts, when all the mice had tumor volume of about ˜60-85 mm^3 (Table 8). All the living mice were monitored for 8 weeks to monitor the growth delay. Mice body weight and tumor volume were monitored every 3 days throughout the experiment. Endpoint criteria defined by the institute ACUC was weight loss≥15%, a tumor volume>1800 mm^3, active ulceration of the tumor or abnormal behavior indicating pain or unease. After 8-weeks, three mice from each group were submitted for detail necropsy and blood analysis. Mice group treated with ^177Lu-1 and ^177Lu-PSMA-617 were continued to monitor until the endpoint. These definitions were also used for Kaplan-Meier analysis. The probability of reaching 5 times the initial tumor volume was characterized using Kaplan-Meier curves, and comparison was performed using the log-rank test. The formula used for calculation of tumor volume was V=width^2×length/2. Toxicity of the ^177Lu-treatment groups after 8-weeks and in healthy CD-1 (n=3) mice treated with 111 MBq was evaluated by pathologic examination at the Johns Hopkins Pathology Core facility with serum metabolic panel, blood counts, and full necropsy including detailed histopathology of kidneys, salivary glands and lacrimal glands.

[1] = system: PSMA(+) PC3 PIP and PSMA(−) PC3 flu tumor xenografts; assay: Biodistribution of 177Lu compounds (Example 5); conditions: 3 h post-injection
[2] = Blood analysis and necropsy after radiotherapy; type: in vivo, NOD/SCID mice
Method: as §1
Significant and concerning changes were identified in testes, and lacrimal grands primarily (FIG. 25) for all treated groups. […] Parotid glands, usually adjacent to exorbital lacrimal gland, are conspicuously spared and there were mild changes in the group treated ^177Lu-PSMA-617. […] T lymphoblastic lymphoma is accelerated by irradiation and some carcinogens, and is associated with interactions of endogenous retroviruses/retroelements in NOD/SCID mouse strains. […] The cells are large up to 25 μm, with very large nuclei (for a mouse) usually 2-3 nucleoli, and a high mitotic rate. Testis and lacrimal gland degenerative changes indicate that this animal did receive a treatment similar to other treated mice.
as §2

[3] = 111 MBq (3 mCi), after eight weeks, n=3

O=C(O)CC[C@H](NC(=O)N[C@@H](CCCCN(Cc1ccc(I)cc1)C(=O)CCCCNC(=O)CN1CCN(CC(=O)O)CCN(CC(=O)O)CCN(CC(=O)O)CC1)C(=O)O)C(=O)O [Ligand L2, (14S,18S)-9-(4-iodobenzyl)-2,8,16-trioxo-1-(4,7,10-tris(carboxymethyl)-1,4,7,10-tetraazacyclododecan-1-yl)-3,9,15,17-tetraazaicosane-14,18,20-tricarboxylic acid]
Specific Cell Surface Binding (PSMA(+) PC3 PIP cells): 29.23 ± 0.80 % IA/10^6 cells
specific internalization (PSMA(+) PC3 PIP cells): 24.96 ± 0.90 % IA/10^6 cells
Ki (PSMA): 0.2 to 0.33 nM

O=C(O)CC[C@H](NC(=O)N[C@@H](CCCCN(Cc1ccc(Br)cc1)C(=O)CCCCCNC(=O)c1ccc(CNC(=O)CN2CCN(CC(=O)O)CCN(CC(=O)O)CCN(CC(=O)O)CC2)cc1)C(=O)O)C(=O)O [Ligand L3, (14S,18S)-9-(4-Bromobenzyl)-1,8,16-trioxo-1-(4-((2-(4,7,10-tris(carboxymethyl)-1,4,7,10-tetraazacyclododecan-1-yl)acetamido)methyl)phenyl)-2,9,15,17-tetraazaicosane-14,18,20-tricarboxylic acid]
Specific Cell Surface Binding (PSMA(+) PC3 PIP cells): 36.65 ± 0.50 % IA/10^6 cells
specific internalization (PSMA(+) PC3 PIP cells): 22.03 ± 0.60 % IA/10^6 cells
Ki (PSMA): 0.09 to 34 nM

O=C(O)CC[C@H](NC(=O)N[C@@H](CCCCN(Cc1ccc(I)cc1)C(=O)CCCCCNC(=O)c1ccc(CNC(=O)CN2CCN(CC(=O)O)CCN(CC(=O)O)CCN(CC(=O)O)CC2)cc1)C(=O)O)C(=O)O [Ligand L4, (14S,18S)-9-(4-Iodobenzyl)-1,8,16-trioxo-1-(4-((2-(4,7,10-tris(carboxymethyl)-1,4,7,10-tetraazacyclododecan-1-yl)acetamido)methyl)phenyl)-2,9,15,17-tetraazaicosane-14,18,20-tricarboxylic acid]
Ki (PSMA): 0.14 to 0.39 nM

O=C(O)CC[C@H](NC(=O)N[C@@H](CCCCN(Cc1ccc(I)cc1)C(=O)CCCCCCC(=O)NCCCCNC(=O)c1ccc(CNC(=O)CN2CCN(CC(=O)O)CCN(CC(=O)O)CCN(CC(=O)O)CC2)cc1)C(=O)O)C(=O)O [Ligand L6, (21S,25S)-16-(4-Iodobenzyl)-1,8,15,23-tetraoxo-1-(4-((2-(4,7,10-tris(carboxymethyl)-1,4,7,10-tetraazacyclododecan-1-yl)acetamido)methyl)phenyl)-2,7,16,22,24-pentaazaheptacosane-21,25,27-tricarboxylic acid]
Ki (PSMA): 0.35 to 0.93 nM

O=C(O)CC[C@H](NC(=O)N[C@@H](CCCCNC(=O)CCCCNC(=S)Nc1ccc(CC2CN(CC(=O)O)CCN(CC(=O)O)CCN(CC(=O)O)CCN2CC(=O)O)cc1)C(=O)O)C(=O)O (stereo partly drawn) [Ligand L7, (13S,17S)-7,15-dioxo-1-((4-((1,4,7,10-tetrakis(carboxymethyl)-1,4,7,10-tetraazacyclododecan-2-yl)methyl)phenyl)amino)-1-thioxo-2,8,14,16-tetraazanonadecane-13,17,19-tricarboxylic acid]
Ki (PSMA): 0.29 to 0.81 nM

O=C(O)CC[C@H](NC(=O)N[C@@H](CCCCN(Cc1ccc(Br)cc1)C(=O)c1ccc(CNC(=O)CN2CCN(CC(=O)O)CCN(CC(=O)O)CCN(CC(=O)O)CC2)cc1)C(=O)O)C(=O)O [Ligand L12, (((S)-5-(N-(4-Bromobenzyl)-4-((2-(4,7,10-tris(carboxymethyl)-1,4,7,10-tetraazacyclododecan-1-yl)acetamido)methyl)benzamido)-1-carboxypentyl)carbamoyl)-L-glutamic acid]
Ki (PSMA): 0.22 to 4.03 nM

O=C(O)CC[C@H](NC(=O)N[C@@H](CCCCN(Cc1ccc(Br)nc1)C(=O)CCCCNC(=O)CN1CCN(CC(=O)O)CCN(CC(=O)O)CCN(CC(=O)O)CC1)C(=O)O)C(=O)O [Ligand L13, (14S,18S)-9-((6-Bromopyridin-3-yl)methyl)-2,8,16-trioxo-1-(4,7,10-tris(carboxymethyl)-1,4,7,10-tetraazacyclododecan-1-yl)-3,9,15,17-tetraazaicosane-14,18,20-tricarboxylic acid]
Ki (PSMA): 0.23 to 8.1 nM

O=C([O-])CN1CCN(CC(=O)[O-])CCN(CC(=O)NCCCCC(=O)N(CCCC[C@H](NC(=O)N[C@@H](CCC(=O)O)C(=O)O)C(=O)O)Cc2ccc(Br)cc2)CCN(CC(=O)[O-])CC1.[Lu+3] [Lu-L1]
fold improvement in binding affinity over L1 (PSMA): 3 fold

O=C([O-])CN1CCN(CC(=O)[O-])CCN(CC(=O)NCc2ccc(C(=O)NCCCCCC(=O)N(CCCC[C@H](NC(=O)N[C@@H](CCC(=O)O)C(=O)O)C(=O)O)Cc3ccc(Br)cc3)cc2)CCN(CC(=O)[O-])CC1.[177Lu+3] [^177Lu-L3]
Cell uptake PC3 flu (PSMA(−) PC3 flu cells; 1 h): 0.1 ± 0.0 % incubated dose per 1 x 10^6 cells
Cell uptake PC3 flu (PSMA(−) PC3 flu cells; 2 h): 0.1 ± 0.0 % incubated dose per 1 x 10^6 cells
Cell uptake PC3 flu (PSMA(−) PC3 flu cells; 4 h): 0.1 ± 0.1 % incubated dose per 1 x 10^6 cells
Cell uptake PC3 flu (PSMA(−) PC3 flu cells; 24 h): 0.1 ± 0.0 % incubated dose per 1 x 10^6 cells
Cell uptake PC3 PIP (PSMA(+) PC3 PIP cells; 1 h): 27.0 ± 1.3 % incubated dose per 1 x 10^6 cells
PC3 PIP cell Int (internalization) (PSMA(+) PC3 PIP cells; 1 h): 21.4 ± 1.4 % incubated dose per 1 x 10^6 cells
Blockade PC3 PIP (PSMA(+) PC3 PIP cells; 1 h): 0.1 ± 0.0 % incubated dose per 1 x 10^6 cells
total uptake within the PSMA(+) PC3 PIP cells (PSMA(+) PC3 PIP cells): ~30 % of the incubated dose
Cell uptake PC3 PIP (PSMA(+) PC3 PIP cells; 2 h): 36.5 ± 0.3 % incubated dose per 1 x 10^6 cells
PC3 PIP, line without name (position of cell internalization) (PSMA(+) PC3 PIP cells; 2 h): 23.7 ± 0.2 % incubated dose per 1 x 10^6 cells
Cell uptake PC3 PIP (PSMA(+) PC3 PIP cells; 4 h): 32.6 ± 8.5 % incubated dose per 1 x 10^6 cells
PC3 PIP cell int (internalization) (PSMA(+) PC3 PIP cells; 4 h): 24.9 ± 3.4 % incubated dose per 1 x 10^6 cells
Cell uptake PC3 PIP (PSMA(+) PC3 PIP cells; 24 h): 45.2 ± 1.2 % incubated dose per 1 x 10^6 cells
PC3 PIP cell int (internalization) (PSMA(+) PC3 PIP cells; 24 h): 30.0 ± 0.7 % incubated dose per 1 x 10^6 cells
Median survival After 8 weeks post-treatment (PSMA+ PC3 PIP tumors): Not reached
Tumors above stated relative tumor growth after week 8 post-treatment (Vt/V0) (PSMA+ PC3 PIP tumors): Two tumor > 4
Mouse death (number of mice) (PSMA+ PC3 PIP tumors): Mouse death 3
Average final body weight (PSMA+ PC3 PIP tumors): 25.8 ± 2.6 gram

O=C([O-])CN1CCN(CC(=O)[O-])CCN(CC(=O)NCc2ccc(C(=O)NCCCCNC(=O)CCCCCCC(=O)N(CCCC[C@H](NC(=O)N[C@@H](CCC(=O)O)C(=O)O)C(=O)O)Cc3ccc(Br)cc3)cc2)CCN(CC(=O)[O-])CC1.[177Lu+3] [^177Lu-L5]
PSMA(+) PC3 PIP tumor uptake [1]: 56.3±18.3 % ID/g
Cell uptake PC3 flu (PSMA(−) PC3 flu cells; 1 h): 0.2 ± 0.1 % incubated dose per 1 x 10^6 cells
Cell uptake PC3 flu (PSMA(−) PC3 flu cells; 2 h): 0.0 ± 0.0 % incubated dose per 1 x 10^6 cells
Cell uptake PC3 flu (PSMA(−) PC3 flu cells; 4 h): 0.1 ± 0.0 % incubated dose per 1 x 10^6 cells
Cell uptake PC3 flu (PSMA(−) PC3 flu cells; 24 h): 0.1 ± 0.0 % incubated dose per 1 x 10^6 cells
Albumin [2, 3]: 3 ± 0.4 g/dL
Blood urea nitrogen [2, 3]: 22.7 ± 3.2 mg/dL
Hematocrit [2, 3]: 49.7 ± 2.4%
Hemoglobin [2, 3]: 14.3 ± 1.0 g/dL
Lymphocytes [2, 3]: 0.4 ± 0.1 K/μL
Mean Corpuscular Value(MCV) [2, 3]: 54.1 ± 1.4 fL
Neutrophils [2, 3]: 2.0 ± 1.8 K/μL
Platelets [2, 3]: 1415.3 ± 88.5 K/μL
Red blood cells [2, 3]: 9.2 ± 0.7 M/μL
Total protein [2, 3]: 5.9 ± 0.6 g/dL
White blood cells [2, 3]: 2.9 ± 1.8 K/μL
H&E pathology of testis ([2]; 111 MBq, after 8 weeks): most significant changes in testis
Cell uptake PC3 PIP (PSMA(+) PC3 PIP cells; 1 h): 26.6 ± 0.6 % incubated dose per 1 x 10^6 cells
PC3 PIP cell Int (internalization) (PSMA(+) PC3 PIP cells; 1 h): 24.1 ± 0.5 % incubated dose per 1 x 10^6 cells
Blockade PC3 PIP (PSMA(+) PC3 PIP cells; 1 h): 0.0 ± 0.0 % incubated dose per 1 x 10^6 cells
total uptake within the PSMA(+) PC3 PIP cells (PSMA(+) PC3 PIP cells): ~30 % of the incubated dose
Cell uptake PC3 PIP (PSMA(+) PC3 PIP cells; 2 h): 29.23 ± 0.8 % incubated dose per 1 x 10^6 cells
PC3 PIP, line without name (position of cell internalization) (PSMA(+) PC3 PIP cells; 2 h): 25.0 ± 0.9 % incubated dose per 1 x 10^6 cells
Cell uptake PC3 PIP (PSMA(+) PC3 PIP cells; 4 h): 34.4 ± 1.2 % incubated dose per 1 x 10^6 cells
PC3 PIP cell int (internalization) (PSMA(+) PC3 PIP cells; 4 h): 26.1 ± 1.0 % incubated dose per 1 x 10^6 cells
Cell uptake PC3 PIP (PSMA(+) PC3 PIP cells; 24 h): 49.8 ± 1.4 % incubated dose per 1 x 10^6 cells
PC3 PIP cell int (internalization) (PSMA(+) PC3 PIP cells; 24 h): 27.9 ± 0.8 % incubated dose per 1 x 10^6 cells
Median survival After 8 weeks post-treatment (PSMA+ PC3 PIP tumors): Not reached
Tumors above stated relative tumor growth after week 8 post-treatment (Vt/V0) (PSMA+ PC3 PIP tumors): one tumor > 5
Mouse death (number of mice) (PSMA+ PC3 PIP tumors): Mouse death 3
Average final body weight (PSMA+ PC3 PIP tumors): 27.5 ± 1.9 gram
